{"source": "ChEMBL document CHEMBL5579820", "about": "“New insights into butyrylcholinesterase: Pharmaceutical applications, selective inhibitors and multitarget-directed ligands” (Eur J Med Chem, 2024)", "key": {"[1]": {"biological_target": "T1, Acetylcholinesterase (Homo sapiens, UniProt P22303)", "T1 sequence (P22303 whole entry)": "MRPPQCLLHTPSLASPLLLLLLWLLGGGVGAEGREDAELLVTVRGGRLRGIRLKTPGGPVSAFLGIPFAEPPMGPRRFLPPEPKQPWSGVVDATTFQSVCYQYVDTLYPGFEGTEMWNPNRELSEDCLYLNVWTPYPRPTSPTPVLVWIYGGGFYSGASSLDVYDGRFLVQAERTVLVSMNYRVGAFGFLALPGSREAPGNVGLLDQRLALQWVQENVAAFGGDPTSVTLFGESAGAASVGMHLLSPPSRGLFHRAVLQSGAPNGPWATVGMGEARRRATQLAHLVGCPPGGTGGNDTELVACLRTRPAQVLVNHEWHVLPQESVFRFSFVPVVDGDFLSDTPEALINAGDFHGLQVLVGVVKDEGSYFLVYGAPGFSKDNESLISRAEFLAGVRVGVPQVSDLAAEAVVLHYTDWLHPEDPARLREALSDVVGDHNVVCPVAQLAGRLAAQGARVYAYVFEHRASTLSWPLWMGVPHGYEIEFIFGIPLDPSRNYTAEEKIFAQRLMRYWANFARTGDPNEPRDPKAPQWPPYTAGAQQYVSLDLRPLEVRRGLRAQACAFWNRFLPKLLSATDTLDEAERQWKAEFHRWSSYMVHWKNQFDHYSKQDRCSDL", "assay": "Inhibition of human AChE using acetylthiocholine iodide as substrate by Ellman's method"}, "[2]": {"biological_target": "T2, Cholinesterase (Homo sapiens, UniProt P06276)", "T2 sequence (P06276 whole entry)": "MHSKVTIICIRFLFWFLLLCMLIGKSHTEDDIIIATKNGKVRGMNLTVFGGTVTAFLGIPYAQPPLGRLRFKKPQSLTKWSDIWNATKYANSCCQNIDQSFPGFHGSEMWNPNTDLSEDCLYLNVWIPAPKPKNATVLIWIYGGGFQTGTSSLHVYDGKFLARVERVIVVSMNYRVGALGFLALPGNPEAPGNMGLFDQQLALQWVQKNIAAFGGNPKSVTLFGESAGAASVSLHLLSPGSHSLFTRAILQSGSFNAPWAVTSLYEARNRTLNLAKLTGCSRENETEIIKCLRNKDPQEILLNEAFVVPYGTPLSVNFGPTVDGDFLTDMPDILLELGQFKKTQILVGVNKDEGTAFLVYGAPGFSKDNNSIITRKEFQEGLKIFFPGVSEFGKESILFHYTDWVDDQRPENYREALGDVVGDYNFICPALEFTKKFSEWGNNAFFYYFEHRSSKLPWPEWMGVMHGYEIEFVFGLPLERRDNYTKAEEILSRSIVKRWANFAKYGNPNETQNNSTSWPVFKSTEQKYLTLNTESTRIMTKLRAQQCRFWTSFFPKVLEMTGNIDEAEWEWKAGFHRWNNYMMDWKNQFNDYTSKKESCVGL", "assay": "Inhibition of human BChE using butyrylthiocholineiodide as substrate by Ellman's method"}, "[3]": {"biological_target": "Cholinesterase (Equus caballus, UniProt P81908)", "sequence (P81908 whole entry)": "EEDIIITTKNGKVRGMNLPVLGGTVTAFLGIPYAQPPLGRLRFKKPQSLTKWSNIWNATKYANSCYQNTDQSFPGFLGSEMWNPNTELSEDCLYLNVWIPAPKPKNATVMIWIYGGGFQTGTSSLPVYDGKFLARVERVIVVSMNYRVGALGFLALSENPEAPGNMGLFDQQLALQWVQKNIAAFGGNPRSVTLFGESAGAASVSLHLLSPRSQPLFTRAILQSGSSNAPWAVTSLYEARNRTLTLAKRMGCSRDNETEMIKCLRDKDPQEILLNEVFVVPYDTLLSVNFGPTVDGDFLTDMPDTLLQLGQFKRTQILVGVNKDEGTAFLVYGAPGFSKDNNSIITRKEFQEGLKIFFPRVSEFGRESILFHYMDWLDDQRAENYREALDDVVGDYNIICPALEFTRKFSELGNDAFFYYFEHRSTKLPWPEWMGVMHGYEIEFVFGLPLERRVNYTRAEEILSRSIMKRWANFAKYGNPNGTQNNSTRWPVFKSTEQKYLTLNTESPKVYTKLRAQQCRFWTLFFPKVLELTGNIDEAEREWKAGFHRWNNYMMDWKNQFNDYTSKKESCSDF", "assay": "Inhibition of equine serum BuChE using S-butyrylthiocholine chloride as substrate by Ellman's method", "format": "cell-free"}, "[4]": {"biological_target": "T2, Cholinesterase", "assay": "Inhibition of BChE (unknown origin) incubated for 10 mins by Ellman's method"}, "[5]": {"biological_target": "Acetylcholinesterase (Electrophorus electricus, UniProt O42275)", "sequence (O42275 whole entry)": "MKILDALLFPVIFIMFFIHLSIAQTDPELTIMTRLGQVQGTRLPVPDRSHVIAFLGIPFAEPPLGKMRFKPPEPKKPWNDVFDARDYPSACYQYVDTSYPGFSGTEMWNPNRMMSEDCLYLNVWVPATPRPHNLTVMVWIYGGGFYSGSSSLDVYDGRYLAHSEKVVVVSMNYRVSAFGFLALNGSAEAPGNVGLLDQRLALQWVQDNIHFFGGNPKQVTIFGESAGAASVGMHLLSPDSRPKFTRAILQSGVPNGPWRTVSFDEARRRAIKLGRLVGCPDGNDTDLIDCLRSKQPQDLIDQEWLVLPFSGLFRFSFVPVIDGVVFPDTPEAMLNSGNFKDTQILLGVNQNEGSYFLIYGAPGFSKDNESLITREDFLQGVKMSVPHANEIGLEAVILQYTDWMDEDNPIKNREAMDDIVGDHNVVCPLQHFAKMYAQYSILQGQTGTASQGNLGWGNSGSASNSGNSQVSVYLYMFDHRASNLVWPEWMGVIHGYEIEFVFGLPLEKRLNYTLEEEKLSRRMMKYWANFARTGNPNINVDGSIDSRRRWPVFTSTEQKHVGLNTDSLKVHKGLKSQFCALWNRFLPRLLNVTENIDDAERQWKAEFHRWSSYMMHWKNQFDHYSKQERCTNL", "assay": "Inhibition of electric eel AChE using acetylthiocholine iodide as substrate by Ellman's method"}, "[6]": {"biological_target": "T3, Amine oxidase [flavin-containing] B (Homo sapiens, UniProt P27338)", "T3 sequence (P27338 whole entry)": "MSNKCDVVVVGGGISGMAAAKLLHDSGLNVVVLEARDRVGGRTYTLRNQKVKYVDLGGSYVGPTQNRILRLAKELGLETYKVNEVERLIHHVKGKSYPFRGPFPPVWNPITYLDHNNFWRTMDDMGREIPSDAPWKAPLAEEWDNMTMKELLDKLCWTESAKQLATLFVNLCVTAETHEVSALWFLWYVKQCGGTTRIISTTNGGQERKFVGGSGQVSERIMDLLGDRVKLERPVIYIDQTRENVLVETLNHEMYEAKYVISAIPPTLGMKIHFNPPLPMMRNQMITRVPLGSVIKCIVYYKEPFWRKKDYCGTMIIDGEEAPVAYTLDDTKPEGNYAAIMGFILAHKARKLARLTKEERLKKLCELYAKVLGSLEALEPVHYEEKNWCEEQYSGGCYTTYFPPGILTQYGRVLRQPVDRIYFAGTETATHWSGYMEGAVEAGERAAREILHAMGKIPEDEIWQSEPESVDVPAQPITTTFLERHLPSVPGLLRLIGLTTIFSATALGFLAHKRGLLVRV", "assay": "Inhibition of human recombinant MAO-B using benzylamine as substrate by fluorescence based analysis"}, "[7]": {"biological_target": "T4, Amine oxidase [flavin-containing] A (Homo sapiens, UniProt P21397)", "T4 sequence (P21397 whole entry)": "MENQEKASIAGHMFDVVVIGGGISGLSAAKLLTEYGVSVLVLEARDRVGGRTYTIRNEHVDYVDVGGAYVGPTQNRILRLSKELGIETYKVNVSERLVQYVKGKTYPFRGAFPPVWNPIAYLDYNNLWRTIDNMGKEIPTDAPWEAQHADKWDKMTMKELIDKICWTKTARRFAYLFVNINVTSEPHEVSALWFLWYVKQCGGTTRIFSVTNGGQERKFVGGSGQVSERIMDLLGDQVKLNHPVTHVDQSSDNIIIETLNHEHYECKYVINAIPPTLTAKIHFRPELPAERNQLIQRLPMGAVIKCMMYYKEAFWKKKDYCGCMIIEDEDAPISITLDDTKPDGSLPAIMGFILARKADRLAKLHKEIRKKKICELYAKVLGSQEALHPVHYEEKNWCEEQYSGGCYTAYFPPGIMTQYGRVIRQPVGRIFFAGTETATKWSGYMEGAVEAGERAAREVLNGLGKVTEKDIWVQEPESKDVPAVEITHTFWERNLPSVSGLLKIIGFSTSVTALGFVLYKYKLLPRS", "assay": "Inhibition of human recombinant MAO-A using kynuramine as substrate by incubated for 75 mins by spectrophotometric analysis"}, "[8]": {"assay": "Inhibition of equine serum BChE using butyrylthiocholine iodide as substrate by measured after 30 mins Ellman's method", "format": "cell-free, Equus caballus"}, "[9]": {"assay": "Inhibition of equine serum BChE using butyrylthiocholine iodide as substrate incubated for 30 mins by Ellman's method", "set-up": "species or system Equus caballus"}, "[10]": {"biological_target": "Indoleamine 2,3-dioxygenase 1 (Homo sapiens, UniProt P14902)", "sequence (P14902 whole entry)": "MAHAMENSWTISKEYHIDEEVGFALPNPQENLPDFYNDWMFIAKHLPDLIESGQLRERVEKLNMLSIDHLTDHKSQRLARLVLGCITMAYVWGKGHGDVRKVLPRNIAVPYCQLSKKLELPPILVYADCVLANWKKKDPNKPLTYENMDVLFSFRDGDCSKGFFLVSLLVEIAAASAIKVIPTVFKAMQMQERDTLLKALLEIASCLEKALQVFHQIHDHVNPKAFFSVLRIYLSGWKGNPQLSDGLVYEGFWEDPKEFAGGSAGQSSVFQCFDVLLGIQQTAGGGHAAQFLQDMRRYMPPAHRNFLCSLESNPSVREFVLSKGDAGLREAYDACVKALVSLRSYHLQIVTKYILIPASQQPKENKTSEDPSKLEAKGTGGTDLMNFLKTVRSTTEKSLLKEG", "assay": "Inhibition of IDO1 (unknown origin)"}, "[11]": {"biological_target": "T1, Acetylcholinesterase", "assay": "Inhibition of human recombinant AChE using acetylthiocholine iodide as substrate preincubated for 30 mins followed by substrate addition and measured for 60 mins by Ellman's method"}}}
{"smiles": "Cc1cc2c(cc1C)[n+](Cc1ccccc1C)cn2C(c1ccccc1)c1ccccc1", "values": [{"measurement": "IC50", "setting": "[1]", "result": 4.19, "unit": "µM"}, {"measurement": "IC50", "setting": "[2]", "result": 0.15, "unit": "µM"}]}
{"smiles": "CN1CCc2c(c3cc(F)ccc3n2CCNC23CC4CC(C)(CC(C)(C4)C2)C3)C1", "values": [{"measurement": "IC50", "setting": "[3]", "result": 0.72, "unit": "µM"}, {"measurement": "IC50", "setting": "[4]", "result": 39.7, "unit": "µM"}]}
{"smiles": "COc1cccc(COc2ccc(C(C)=O)c(OCc3cn(CCc4c[nH]c5ccccc45)nn3)c2)c1", "values": [{"measurement": "IC50", "setting": "[5]", "result": "> 100", "unit": "µM"}, {"measurement": "IC50", "setting": "[6]", "result": 3.71, "unit": "µM"}, {"measurement": "IC50", "setting": "[7]", "result": 74.7, "unit": "µM"}, {"measurement": "IC50", "setting": "[8]", "result": 0.92, "unit": "µM"}]}
{"smiles": "COc1cccc(COC(Cn2ccnc2)c2ccc(F)c(F)c2)c1", "note": "(stereo unspecified)", "values": [{"measurement": "IC50", "setting": "[9]", "result": 13.2, "unit": "µM"}, {"measurement": "IC50", "setting": "[10]", "result": 22.8, "unit": "µM"}]}
{"smiles": "Clc1ccc(C(Cn2ccnc2)OCc2csc3c(Cl)cccc23)c(Cl)c1", "note": "(stereo unspecified) [SERTACONAZOLE]", "values": [{"measurement": "IC50", "setting": "[11]", "result": 0.1, "unit": "µM"}]}
